From ChEMBL document CHEMBL3991601, “The target landscape of clinical kinase drugs” (Science, 2017) come the findings set out here.

Test [1] addresses Cyclin-dependent kinase 12 (Homo sapiens, UniProt Q9NYV4).
Test [2] addresses Tyrosine-protein kinase JAK1 (Homo sapiens, UniProt P23458).
Test [3] concerns the target Non-receptor tyrosine-protein kinase TYK2 (Homo sapiens, UniProt P29597).
Test [4] concerns the target T1, Serine/threonine-protein kinase ICK (Homo sapiens, UniProt Q9UPZ9).
T1 sequence (Q9UPZ9 whole entry): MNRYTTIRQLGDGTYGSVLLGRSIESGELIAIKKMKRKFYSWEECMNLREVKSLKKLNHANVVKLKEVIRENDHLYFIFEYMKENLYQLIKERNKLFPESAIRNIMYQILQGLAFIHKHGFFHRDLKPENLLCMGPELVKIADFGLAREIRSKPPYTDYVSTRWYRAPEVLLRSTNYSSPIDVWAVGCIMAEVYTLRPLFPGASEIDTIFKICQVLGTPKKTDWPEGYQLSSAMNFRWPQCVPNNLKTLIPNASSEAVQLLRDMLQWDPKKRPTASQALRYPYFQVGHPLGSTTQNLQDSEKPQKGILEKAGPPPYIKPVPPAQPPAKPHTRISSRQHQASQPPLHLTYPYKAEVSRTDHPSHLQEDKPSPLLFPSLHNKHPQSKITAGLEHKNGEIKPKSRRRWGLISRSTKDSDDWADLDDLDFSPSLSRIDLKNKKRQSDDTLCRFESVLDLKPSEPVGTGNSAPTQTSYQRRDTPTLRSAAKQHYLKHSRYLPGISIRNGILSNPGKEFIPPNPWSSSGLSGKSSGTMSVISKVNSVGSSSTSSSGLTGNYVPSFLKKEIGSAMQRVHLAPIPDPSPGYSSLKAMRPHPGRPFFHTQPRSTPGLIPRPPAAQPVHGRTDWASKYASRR

The target of test [5] is T2, ATP-dependent RNA helicase DDX1 (Homo sapiens, UniProt Q92499).
T2 sequence (Q92499 whole entry): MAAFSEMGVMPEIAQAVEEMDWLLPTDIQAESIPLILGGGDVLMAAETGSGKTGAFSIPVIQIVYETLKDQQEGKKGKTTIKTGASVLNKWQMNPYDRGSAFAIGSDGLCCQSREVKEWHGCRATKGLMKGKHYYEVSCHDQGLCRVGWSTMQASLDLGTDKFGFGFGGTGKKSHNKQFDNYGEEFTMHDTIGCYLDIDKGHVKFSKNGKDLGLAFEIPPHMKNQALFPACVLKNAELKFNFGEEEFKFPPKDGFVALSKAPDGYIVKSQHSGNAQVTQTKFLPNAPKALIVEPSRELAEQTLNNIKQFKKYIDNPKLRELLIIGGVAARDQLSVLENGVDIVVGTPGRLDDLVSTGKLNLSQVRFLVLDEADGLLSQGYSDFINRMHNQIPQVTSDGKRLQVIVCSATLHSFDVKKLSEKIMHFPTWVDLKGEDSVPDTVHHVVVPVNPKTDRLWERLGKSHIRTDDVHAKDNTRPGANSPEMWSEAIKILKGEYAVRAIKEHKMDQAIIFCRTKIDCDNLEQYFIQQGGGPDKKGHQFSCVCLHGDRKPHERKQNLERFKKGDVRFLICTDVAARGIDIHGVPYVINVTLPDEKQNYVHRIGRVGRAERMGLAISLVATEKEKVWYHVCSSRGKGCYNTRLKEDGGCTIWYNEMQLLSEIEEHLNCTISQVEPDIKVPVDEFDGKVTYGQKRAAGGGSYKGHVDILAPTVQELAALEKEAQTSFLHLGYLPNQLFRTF

Test [6] deals with T3, Ras-related protein Rab-27A (Homo sapiens, UniProt P51159).
T3 sequence (P51159 whole entry): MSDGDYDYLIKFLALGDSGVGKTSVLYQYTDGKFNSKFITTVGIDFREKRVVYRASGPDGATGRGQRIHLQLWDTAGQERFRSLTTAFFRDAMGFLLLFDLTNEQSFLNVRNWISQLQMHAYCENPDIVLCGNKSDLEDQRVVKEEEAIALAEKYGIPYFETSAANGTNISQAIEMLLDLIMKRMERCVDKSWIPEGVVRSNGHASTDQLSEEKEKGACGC

Test [7] concerns the target Casein kinase I isoform delta (Homo sapiens, UniProt P48730).
Test [8] has as its target T4, Mitogen-activated protein kinase kinase kinase kinase 3 (Homo sapiens, UniProt Q8IVH8).
T4 sequence (Q8IVH8 whole entry): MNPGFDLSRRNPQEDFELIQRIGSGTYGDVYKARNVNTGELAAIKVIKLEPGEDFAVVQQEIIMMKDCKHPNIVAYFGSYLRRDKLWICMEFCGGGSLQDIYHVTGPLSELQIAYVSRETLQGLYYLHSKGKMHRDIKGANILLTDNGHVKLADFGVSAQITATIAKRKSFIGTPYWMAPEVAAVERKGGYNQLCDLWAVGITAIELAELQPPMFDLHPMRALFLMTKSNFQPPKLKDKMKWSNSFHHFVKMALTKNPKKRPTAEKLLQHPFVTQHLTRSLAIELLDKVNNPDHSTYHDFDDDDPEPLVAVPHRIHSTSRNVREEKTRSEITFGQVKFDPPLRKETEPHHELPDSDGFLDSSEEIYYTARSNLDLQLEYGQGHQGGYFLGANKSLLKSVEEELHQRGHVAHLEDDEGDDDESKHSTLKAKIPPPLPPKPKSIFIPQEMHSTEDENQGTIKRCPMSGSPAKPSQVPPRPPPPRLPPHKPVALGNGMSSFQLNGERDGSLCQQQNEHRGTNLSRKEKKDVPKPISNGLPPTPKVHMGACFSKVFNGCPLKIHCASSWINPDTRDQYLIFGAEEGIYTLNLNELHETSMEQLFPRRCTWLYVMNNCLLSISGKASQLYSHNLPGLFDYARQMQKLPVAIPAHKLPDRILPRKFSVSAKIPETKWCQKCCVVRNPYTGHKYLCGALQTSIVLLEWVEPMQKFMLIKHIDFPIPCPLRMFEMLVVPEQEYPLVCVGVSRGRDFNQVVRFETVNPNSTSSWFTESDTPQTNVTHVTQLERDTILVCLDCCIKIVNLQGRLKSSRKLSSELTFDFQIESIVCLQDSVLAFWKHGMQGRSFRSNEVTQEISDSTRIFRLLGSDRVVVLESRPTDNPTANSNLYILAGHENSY

For test [9], the target named is cAMP-dependent protein kinase catalytic subunit beta (Homo sapiens, UniProt P22694).
Test [10] deals with Tyrosine-protein kinase Fer (Homo sapiens, UniProt P16591).
For test [11], the target named is Mitotic checkpoint serine/threonine-protein kinase BUB1 (Homo sapiens, UniProt O43683).
The target in test [12] is Protein-tyrosine kinase 2-beta (Homo sapiens, UniProt Q14289).

Calls of active or inactive are those of the source. For most assays here, no stated cut-off is given here; in the data, actives have a measured Kd and inactives only a lower limit.

Sequence of Tyrosine-protein kinase JAK1 (P23458 whole entry): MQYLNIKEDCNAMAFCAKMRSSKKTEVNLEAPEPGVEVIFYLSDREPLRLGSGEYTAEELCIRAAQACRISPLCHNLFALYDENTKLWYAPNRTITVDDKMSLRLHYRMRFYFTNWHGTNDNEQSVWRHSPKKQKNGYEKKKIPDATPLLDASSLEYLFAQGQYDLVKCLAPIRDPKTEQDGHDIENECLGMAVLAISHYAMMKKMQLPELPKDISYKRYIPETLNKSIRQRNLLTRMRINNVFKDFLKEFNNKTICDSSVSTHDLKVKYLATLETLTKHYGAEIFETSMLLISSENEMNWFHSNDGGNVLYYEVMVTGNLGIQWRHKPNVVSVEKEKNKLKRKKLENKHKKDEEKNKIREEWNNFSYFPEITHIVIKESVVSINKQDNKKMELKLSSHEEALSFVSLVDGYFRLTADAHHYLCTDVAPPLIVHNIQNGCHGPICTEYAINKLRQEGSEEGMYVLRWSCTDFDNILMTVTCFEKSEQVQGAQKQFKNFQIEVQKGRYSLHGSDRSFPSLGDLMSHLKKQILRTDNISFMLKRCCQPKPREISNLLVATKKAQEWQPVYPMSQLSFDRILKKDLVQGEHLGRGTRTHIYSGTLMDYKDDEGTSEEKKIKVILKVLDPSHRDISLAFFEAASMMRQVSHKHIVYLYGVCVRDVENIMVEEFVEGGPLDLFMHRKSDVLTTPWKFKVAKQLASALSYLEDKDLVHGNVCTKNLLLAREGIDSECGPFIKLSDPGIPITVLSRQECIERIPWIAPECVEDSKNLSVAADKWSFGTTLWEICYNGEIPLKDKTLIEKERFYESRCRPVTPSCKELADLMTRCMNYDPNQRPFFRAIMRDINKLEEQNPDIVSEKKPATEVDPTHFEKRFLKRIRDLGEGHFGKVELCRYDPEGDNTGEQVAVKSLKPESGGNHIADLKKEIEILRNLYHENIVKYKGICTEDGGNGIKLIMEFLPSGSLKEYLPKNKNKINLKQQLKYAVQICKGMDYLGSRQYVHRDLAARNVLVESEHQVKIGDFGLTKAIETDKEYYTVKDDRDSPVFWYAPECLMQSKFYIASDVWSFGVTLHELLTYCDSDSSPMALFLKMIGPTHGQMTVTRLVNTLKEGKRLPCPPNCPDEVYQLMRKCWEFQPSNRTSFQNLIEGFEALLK
Sequence of Mitotic checkpoint serine/threonine-protein kinase BUB1 (O43683 whole entry): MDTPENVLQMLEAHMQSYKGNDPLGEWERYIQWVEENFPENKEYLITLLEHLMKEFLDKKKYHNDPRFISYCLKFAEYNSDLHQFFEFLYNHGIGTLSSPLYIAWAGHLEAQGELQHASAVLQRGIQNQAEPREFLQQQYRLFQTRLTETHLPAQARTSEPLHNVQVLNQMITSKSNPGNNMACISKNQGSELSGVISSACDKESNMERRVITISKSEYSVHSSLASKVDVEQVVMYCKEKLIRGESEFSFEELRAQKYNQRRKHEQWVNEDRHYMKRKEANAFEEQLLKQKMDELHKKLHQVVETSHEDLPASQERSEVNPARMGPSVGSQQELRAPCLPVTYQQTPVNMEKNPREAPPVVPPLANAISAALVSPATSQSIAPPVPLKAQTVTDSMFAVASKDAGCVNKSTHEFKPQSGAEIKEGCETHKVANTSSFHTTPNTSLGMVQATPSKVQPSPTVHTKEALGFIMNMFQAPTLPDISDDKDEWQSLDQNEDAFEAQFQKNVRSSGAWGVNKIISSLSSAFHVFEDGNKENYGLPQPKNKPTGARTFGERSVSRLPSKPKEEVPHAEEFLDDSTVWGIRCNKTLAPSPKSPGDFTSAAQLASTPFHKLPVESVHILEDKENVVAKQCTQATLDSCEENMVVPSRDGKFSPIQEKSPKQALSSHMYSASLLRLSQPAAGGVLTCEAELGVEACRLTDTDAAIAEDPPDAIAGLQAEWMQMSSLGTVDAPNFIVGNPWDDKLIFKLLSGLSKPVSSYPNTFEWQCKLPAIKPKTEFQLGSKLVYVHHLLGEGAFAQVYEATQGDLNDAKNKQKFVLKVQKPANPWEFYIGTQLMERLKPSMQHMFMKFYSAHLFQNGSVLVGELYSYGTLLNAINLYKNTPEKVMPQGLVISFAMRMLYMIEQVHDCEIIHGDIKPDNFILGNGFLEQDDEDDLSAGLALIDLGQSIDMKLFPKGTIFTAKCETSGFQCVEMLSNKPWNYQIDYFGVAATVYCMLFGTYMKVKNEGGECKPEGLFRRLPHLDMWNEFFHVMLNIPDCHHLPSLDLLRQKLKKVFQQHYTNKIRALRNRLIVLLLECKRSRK
Sequence of Non-receptor tyrosine-protein kinase TYK2 (P29597 whole entry): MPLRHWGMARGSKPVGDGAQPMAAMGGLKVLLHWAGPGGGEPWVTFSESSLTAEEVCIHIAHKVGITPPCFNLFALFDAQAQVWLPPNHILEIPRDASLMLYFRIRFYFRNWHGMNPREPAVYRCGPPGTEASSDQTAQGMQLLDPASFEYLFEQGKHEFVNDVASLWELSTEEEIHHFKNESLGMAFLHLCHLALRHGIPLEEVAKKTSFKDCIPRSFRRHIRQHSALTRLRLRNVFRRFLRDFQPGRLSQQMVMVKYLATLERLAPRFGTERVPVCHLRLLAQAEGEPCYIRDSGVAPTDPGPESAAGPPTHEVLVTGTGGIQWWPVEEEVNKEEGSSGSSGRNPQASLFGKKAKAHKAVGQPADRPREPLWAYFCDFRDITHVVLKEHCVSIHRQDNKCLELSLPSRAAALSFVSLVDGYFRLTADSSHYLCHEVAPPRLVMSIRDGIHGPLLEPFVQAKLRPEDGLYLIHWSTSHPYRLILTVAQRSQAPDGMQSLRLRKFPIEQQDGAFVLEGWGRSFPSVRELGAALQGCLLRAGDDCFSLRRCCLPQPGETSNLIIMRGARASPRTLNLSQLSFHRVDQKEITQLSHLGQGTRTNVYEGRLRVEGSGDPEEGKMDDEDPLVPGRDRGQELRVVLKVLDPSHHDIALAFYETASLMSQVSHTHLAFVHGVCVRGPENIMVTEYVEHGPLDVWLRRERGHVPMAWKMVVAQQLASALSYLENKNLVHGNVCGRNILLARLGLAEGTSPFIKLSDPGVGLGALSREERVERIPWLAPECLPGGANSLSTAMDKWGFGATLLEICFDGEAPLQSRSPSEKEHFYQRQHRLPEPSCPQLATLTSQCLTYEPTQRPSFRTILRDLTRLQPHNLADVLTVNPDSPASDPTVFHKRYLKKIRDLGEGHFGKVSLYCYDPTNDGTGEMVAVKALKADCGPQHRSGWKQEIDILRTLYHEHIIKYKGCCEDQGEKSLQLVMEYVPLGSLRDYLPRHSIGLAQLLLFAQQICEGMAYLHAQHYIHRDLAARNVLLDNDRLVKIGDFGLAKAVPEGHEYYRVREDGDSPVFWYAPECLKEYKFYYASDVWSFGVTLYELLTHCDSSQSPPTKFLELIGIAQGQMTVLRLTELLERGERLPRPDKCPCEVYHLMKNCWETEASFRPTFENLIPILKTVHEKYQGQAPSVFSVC
Sequence of Casein kinase I isoform delta (P48730 whole entry, canonical isoform): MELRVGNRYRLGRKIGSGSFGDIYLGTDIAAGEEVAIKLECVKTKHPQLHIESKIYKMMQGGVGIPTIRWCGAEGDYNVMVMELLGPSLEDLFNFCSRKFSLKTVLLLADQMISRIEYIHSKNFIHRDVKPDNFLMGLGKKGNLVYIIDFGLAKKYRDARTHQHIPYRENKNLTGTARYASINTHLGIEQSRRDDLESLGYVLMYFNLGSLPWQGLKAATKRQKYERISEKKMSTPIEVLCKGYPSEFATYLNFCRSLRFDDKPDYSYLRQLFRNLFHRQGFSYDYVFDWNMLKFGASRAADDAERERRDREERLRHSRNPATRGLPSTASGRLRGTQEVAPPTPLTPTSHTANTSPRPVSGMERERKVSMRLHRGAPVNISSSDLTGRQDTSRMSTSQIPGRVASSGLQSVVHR
Sequence of Tyrosine-protein kinase Fer (P16591 whole entry): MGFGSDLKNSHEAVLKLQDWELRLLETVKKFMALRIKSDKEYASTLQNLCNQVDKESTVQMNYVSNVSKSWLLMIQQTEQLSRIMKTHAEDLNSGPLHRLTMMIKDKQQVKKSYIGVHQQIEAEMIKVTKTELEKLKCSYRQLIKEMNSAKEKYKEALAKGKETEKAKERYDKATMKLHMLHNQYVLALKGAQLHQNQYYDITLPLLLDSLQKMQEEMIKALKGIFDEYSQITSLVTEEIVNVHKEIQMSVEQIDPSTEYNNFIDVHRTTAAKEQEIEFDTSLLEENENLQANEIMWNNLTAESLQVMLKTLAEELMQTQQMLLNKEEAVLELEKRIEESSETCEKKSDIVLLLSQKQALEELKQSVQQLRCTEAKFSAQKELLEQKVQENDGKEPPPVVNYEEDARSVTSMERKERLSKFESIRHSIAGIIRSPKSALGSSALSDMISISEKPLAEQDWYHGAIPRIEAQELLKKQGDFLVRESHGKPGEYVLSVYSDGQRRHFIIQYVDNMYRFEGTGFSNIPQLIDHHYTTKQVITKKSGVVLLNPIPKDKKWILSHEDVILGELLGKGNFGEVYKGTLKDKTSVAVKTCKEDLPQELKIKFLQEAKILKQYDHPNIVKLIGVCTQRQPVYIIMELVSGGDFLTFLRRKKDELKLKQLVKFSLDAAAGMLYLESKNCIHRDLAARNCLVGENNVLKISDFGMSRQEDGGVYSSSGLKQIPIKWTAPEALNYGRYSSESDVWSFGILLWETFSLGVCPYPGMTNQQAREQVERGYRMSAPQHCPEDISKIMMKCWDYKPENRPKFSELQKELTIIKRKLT

For `Cc1ccc(NC(=O)c2ccc(CN3CC[C@H](N(C)C)C3)c(C(F)(F)F)c2)cc1Nc1nccc(-c2cncnc2)n1` [BAFETINIB], the Kd in test [1], in [2], in test [3], in test [4], in [5] and in test [6] was > 30 µM (inactive) each time. In addition, the Kd in test [7], in test [8], in test [9], in [10], in test [11] and in test [12] was > 30 µM (inactive) throughout.

On to `CC(C)Nc1cc(-c2c[nH]c(C(=O)N[C@H](CO)c3cccc(Cl)c3)c2)c(Cl)cn1` [ULIXERTINIB], for which the Kd in test [1], in [2], in test [3], in test [4], in test [5] and in [6] was > 30 µM (inactive) in each case. For the same molecule, the Kd in [7], in [8], in test [9], in [10], in [11] and in test [12] was > 30 µM (inactive) in each case.

Regarding `O=C1NC(=O)/C(=C/c2ccc3nccc(-c4ccncc4)c3c2)S1` [GSK-1059615], the Kd in test [1], in test [2], in test [3], in [4], in [5] and in test [6] was > 30 µM (inactive) each time. The Kd (commonly the free concentration of one partner at which half of the binding sites on the other are occupied at equilibrium, for simple one-to-one binding) is 21.5 µM (active) in [7]; > 30 µM (inactive) in test [8]; > 30 µM (inactive) in test [9]; > 30 µM (inactive) in [10]; > 30 µM (inactive) in test [11]; > 30 µM (inactive) in test [12].

Take `COc1cc(CCc2cc(NC(=O)c3ccc(N4C[C@@H](C)N[C@@H](C)C4)cc3)n[nH]2)cc(OC)c1` [AZD-4547]: the Kd in [1], in test [2], in test [3], in [4], in test [5] and in test [7] was > 30 µM (inactive) each time. Besides, the Kd in test [8] is 0.049 µM (active); in [9], > 30 µM (inactive); in test [10], > 30 µM (inactive); in test [11], > 30 µM (inactive); in test [12] it was > 30 µM (inactive).

Regarding `CCS(=O)(=O)N1CC(CC#N)(n2cc(-c3ncnc4[nH]ccc34)cn2)C1` [BARICITINIB], the Kd in test [1], in test [3], in [4], in test [5], in [6] and in test [7] was > 30 µM (inactive) in each case. In addition, the Kd in [8], in [9], in test [10] and in test [12] was > 30 µM (inactive) throughout.

`C=CC(=O)N1CCC(Oc2cc3c(Nc4ccc(Cl)c(Cl)c4F)ncnc3cc2OC)CC1` [POZIOTINIB]: the Kd in [1], in [2], in [3], in test [4], in [6] and in test [7] was > 30 µM (inactive) in each case. In addition, the Kd in test [8], in [9], in test [10], in [11] and in test [12] was > 30 µM (inactive) throughout.

Turning to `CNC(=O)c1ccc(C)c(-n2c(C)cc(OCc3ccc(F)cc3F)c(Br)c2=O)c1` [PH-797804], the Kd in [1], in test [2], in test [3], in test [4], in test [5] and in test [7] was > 30 µM (inactive) in each case. Moreover, the Kd in [8], in [9], in test [10], in [11] and in test [12] was > 30 µM (inactive) in each case.

As for `C[C@@H](c1ccc2nccn2c1)n1nnc2ncc(-c3cnn(C)c3)nc21` [SAVOLITINIB], the Kd in [1], in [2], in [3], in test [4], in [5] and in test [6] was > 30 µM (inactive) in each case. For the same molecule, the Kd in test [7], in test [8], in test [9], in test [10] and in test [12] was > 30 µM (inactive) in each case.

For the molecule `CCc1cnn2c(NCc3ccc[n+]([O-])c3)cc(N3CCCC[C@H]3CCO)nc12` [DINACICLIB], the Kd was > 30 µM (inactive) in [2]; > 30 µM (inactive) in [3]; 0.271 µM (active) in test [4]; > 30 µM (inactive) in [5]; > 30 µM (inactive) in test [6]; > 30 µM (inactive) in test [7]. For the same molecule, the Kd in [8], in test [9], in test [10], in [11] and in test [12] was > 30 µM (inactive) each time.
